Assay results: patent US8124412B2, “Method of culturing conifer somatic embryos using S(+)-abscisic acid” (Cellfor Inc., priority 2005, dated 2012)

Legend:
[1] = system: loblolly pine somatic embryos, line 76; experiment: Loblolly pine: S-ABA concentration in preculture II medium and maturation medium; assay type: cell-based, Pinus taeda (loblolly pine); details: S-ABA 95% purity, line 76 (FIG. 6)
Procedure: The effect of S-ABA (95% purity) was tested in the loblolly pine pre-culture II medium followed by maturation medium. Somatic embryos of line 76 were cultured as described above; however, ABA was added to the pre-culture medium and maturation medium in the following treatments: […]

[2] = system: loblolly pine somatic embryos, line 76; experiment: Loblolly pine somatic embryo maturation: plantable germinants per gram of tissue plated; assay type: cell-based, Pinus taeda (loblolly pine)
Procedure: The culture medium for loblolly pine was TX medium (see Table 1) with the following additives: Glutamine 2500 mg/L, casein hydrolysate 3000 mg/L, and pH 5.8. The following compounds were added into the basal medium for loblolly pine somatic embryo development at different stages:
1) Solid maintenance medium: 9 μM 2,4-D and 4.5 μM BA, gellan gum 0.3%, sucrose 1%, lactose 2%.
2) Liquid maintenance and bulking-up medium: 9 μM 2,4-D and 4.5 μM BA, 1% sucrose, 2% lactose.
3) Liquid pre-treatment medium: 1% sucrose, 2% lactose.
4) Preculture II medium. Lactose 2%, 1% sucrose
5) Solid maturation containing 1% gellan gum, and 2500 mg/L L-glutamine and 3000 mg/L casein hydrolysate, 3% sucrose. The maturation media contained different types of ABA and concentrations. S,R-ABA (98% purity) was tested at the previously determined optimum of 120 μM. S-ABA (90% purity) was tested at 60 μM and 120 μM. 0.3 grams of tissue were plated per petri-plate). Culture was for 18 weeks in the dark at room temperature. After, the embryos were desiccated for 1.5 hours in a stream of sterile air to a moisture content of less than 10%. Plates were stored at −28° C.
6) Germination. The filter papers with desiccated embryos attached were moved onto germination medium shown in Table 2, and cultured in the dark for 1 week then transferred to light. The numbers of germinants of suitable quality for planting were counted.

[3] = system: Douglas fir somatic embryos; experiment: Douglas fir somatic embryogenesis: maturation, germination and conversion after culture on S-ABA or S,R-ABA; assay type: cell-based, Pseudotsuga menziesii (Douglas fir)
Procedure: The culture medium used for Douglas fir was TX medium (see Table 1) with the following additives: glutamine 100 mg/L, casein hydrolysate 100 mg/L, and pH 5.8. The following compounds were added into the basal medium for Douglas fir somatic embryo development at different stages:
1) Solid maintenance medium: 9 μM 2,4-D and 4.5 μM BA, gellan gum 0.28%, sucrose 1%.
2) Liquid maintenance and bulking-up medium: 9 μM 2,4-D and 4.5 μM BA, different carbon sources for experiments.
3) Liquid pre-treatment medium: 20 (first week) or 30 μM ABA (second week), 10% PEG4000 (first week) or PEG1500 (second week), different carbon sources as described in examples below.
4) Solid maturation medium consisted of three media all with 0.02% NH4NO3 and the following:
Medium I. 40 μM ABA, 10% PEG 1500, maltose 2.5%, gellan gum 0.6%
Medium II. 60 μM ABA, 10% PEG1500, maltose 2.5% and sucrose 1%, gellan gum 0.8%
Medium III. 70 μM ABA, 6% PEG1500, sucrose 6%, gellan gum 1%.
The culture was kept in darkness at 23° C. Embryogenic tissue was sub-cultured once every two weeks onto solid maintenance medium. […]
5) Germination. The cultures were germinated at room temperature for 2 to 3 weeks on TX medium (Table 1), 0.5% gellan gum, 1 g/L NH4NO3 after which the germinants were hand selected and placed in low-light for 1 week and high-light for 7 weeks then planted in miniplugs and evaluated after 14 weeks.

[4] = system: loblolly pine germinants/seedlings, line 76; experiment: Loblolly pine merchantable miniplug seedlings in nursery after maturation treatments; assay type: in vivo, Pinus taeda (loblolly pine); details: line 76 (FIG. 5)
Procedure: The effect of the different kinds of ABA on the survival and vigour of germinants was investigated. The germinants were prepared as described above except that ABA in the maturation medium consisted of 95% and 98% purity S-ABA, which was used in the maturation medium at 60 and 120 μM concentration. The S,R-ABA (98% purity) was used at 60 and 120 μM concentration. Miniplug seedlings of merchantable quality were scored after 14 weeks in the nursery.

CC1=CC(=O)CC(C)(C)[C@@]1(O)/C=C/C(C)=C\C(=O)O (mixture of isomers) [S-ABA, (+)-cis,trans-Abscisic Acid]
gradual increase in S-ABA compared to constant ABA throughout development ([1]; 45 μM S-ABA in pre-culture medium to 90 μM in maturation medium): superior
90 μM S-ABA maturation medium compared to 120 μM S-ABA maturation medium [1]: superior
number of plantable germinants per gram of tissue plated, compared to 120 μM S,R-ABA ([2]; 60 μM S-ABA (90% purity) in maturation medium, loblolly line 76 (FIG. 4)): significantly higher
number of plantable germinants, compared to 120 μM S,R-ABA ([2]; 120 μM S-ABA (90% purity) in maturation medium, loblolly line 76 (FIG. 4)): double
effect on maturation frequencies ([3]; Douglas fir, S-ABA compared with S,R-ABA): similar
conversion of embryos, increase compared to S,R-ABA ([3]; one Douglas fir cell line with low conversion potential, embryos cultured on S-ABA vs S,R-ABA (FIG. 3)): 2.5 fold
mean % merchantable seedlings, rank among treatments ([4]; 60 μM 98% purity S-ABA, after 14 weeks in nursery): significantly the is highest
merchantable seedlings, compared to the 60 μM S,R-ABA treatment ([4]; 120 μM S-ABA, after 14 weeks in nursery): more optimal
mean % merchantable seedlings, compared to the S,R-ABA treatments ([4]; all S-ABA treatments (95% and 98% purity, 60 and 120 μM), scored after 14 weeks in nursery): higher

CC1=CC(=O)CC(C)(C)C1(O)/C=C/C(C)=C\C(=O)O (stereo not shown) [S,R-ABA, reference compound]
optimum concentration in maturation medium ([2]; loblolly pine, S,R-ABA 98% purity, previously determined): 120 µM
